Columns and labels:
DPC4 [1] = assay: DPC4 suppression by siRNA expression constructs, transient transfection; assay type: cell-based, human; conditions: MiaPaCa-2 (wild-type DPC4), 24 hours after transfection
From the text: The pMSCVproH vector was first used to create 6 DPC4 siRNA expression constructs, each of which targets a different region of the DPC4 transcript. Each of the oligonucleotide sequences was designed based on the criteria described by Tuschl and co-workers (65) and blasted against the GenBank database to confirm their specificity for DPC4.
Applicants first tested the ability of these constructs in suppressing DPC4 expression by performing transient transfections. Each construct was transiently transfected into the pancreatic cancer cell line MiaPaCa-2 (wild-type DPC4) using the Lipofectin Reagent (Invitrogen). DPC4 expression was examined 24 hours after transfection.

DPC4 [2] = assay: DPC4 suppression in HPDE6 clones after retrovirus infection (Western blot); assay type: cell-based, human
From the text: Because of its high suppression ability in transient transfections, the construct pMSCVpuroH_DPC4_oligo4 was chosen to generate a cell line with stable DPC4 suppression from HPDE6. To verify the specificity of Oligo4, Applicants created a construct with a mutated Oligo4, Oligo4mut10. The only difference between the two oligos is that the nucleotide residue at position 10 was changed from cytosine in Oligo4 to adenine in Oligo4mut10 (FIG. 11A). After retrovirus infection, HPDE6 cells were selected with puromycin at 3 μg/ml. Individual clones were isolated using serial dilution of the cells in 96-well plates. Ten individual clones for each construct were picked and tested for DPC4 expression at protein level by Western blot.
Eight passages after the infection, the expression of DPC4 in this clone was still 90% inhibited compared to the HPDE6 cells transfected with the empty vector (HPDE6-vector). This new cell line, which was named HPDE6-siDPC4, along with HPDE6-vector forms a set of isogenic cell lines for the DPC4 gene.

Row | Substance | DPC4 suppression (DPC4 [1]) | expression of DPC4 inhibited (DPC4 [2]; HPDE6 clone (HPDE6-siDPC4), eight passages after infection, vs HPDE6-vector) [%] | DPC4 suppression (DPC4 [2]; HPDE6 individual clones, six out of 10, protein level by Western blot)
1 | 5′AGCAAGGTTGCACATAGGC 3′ [Olig6] | about 80% | – | –
2 | 5′GTAGGACTGCACCATACAC 3′ [Oligo4] | about 90% | 90 | about 90%

Reference: patent US8394742B2, “Methods, compounds and compositions with genotype selective anticancer activity” (The Translation Genomics Research Institute, priority 2005, dated 2013)
